Results taken from publication PMC9301698 (ACS Omega, 2022).

Key:
butyrylcholinesterase = conditions: read-out: butyrylcholinesterase inhibitory activity IC50; cited from earlier work
HT-29 = conditions: read-out: cytotoxicity against HT-29 IC50; cited from earlier work
[1] = cytotoxicity screening, summary over cell lines; assay type: cell-based; conditions: mouse, human
SW480 cells = assay: MTT cytotoxicity assay, colorectal cancer; assay type: cell-based, human; conditions: Homo sapiens, SW480, read-out: IC50 SW480 (Colorectal cancer), MTT
[2] = MTT cytotoxicity assay, colorectal cancer; assay type: cell-based, human; conditions: human, SW480 cells (colorectal cancer)
K562 cells = assay: MTT cytotoxicity assay, leukemia; assay type: cell-based, human; conditions: Homo sapiens, K562, read-out: IC50 K562 (leukemia), MTT
RAW 264.7 cells = assay: MTT cytotoxicity assay in mammalian cells; assay type: cell-based; conditions: Mus musculus, RAW264.7, read-out: IC50 RAW 264.7, MTT
A549 cells = assay: MTT cytotoxicity assay, lung cancer; assay type: cell-based, human; conditions: Homo sapiens, A549, read-out: IC50 A549 (lung cancer)
[3] = MTT cytotoxicity assay in mammalian cells; assay type: cell-based; conditions: mouse, RAW 264.7 cells
[4] = MTT cytotoxicity assay, leukemia; assay type: cell-based, human; conditions: human, K562 cells (leukemia)
[5] = MTT cytotoxicity assay, lung cancer; assay type: cell-based, human; conditions: human, A549 cells (lung cancer)
α-amylase = biological target: T1, α-amylase (Sus scrofa, UniProt P00690); assay: α-amylase inhibitory assay; assay type: biochemical; conditions: at a concentration of 100 μg/mL; mean ± SD
T1 sequence (P00690 16-511): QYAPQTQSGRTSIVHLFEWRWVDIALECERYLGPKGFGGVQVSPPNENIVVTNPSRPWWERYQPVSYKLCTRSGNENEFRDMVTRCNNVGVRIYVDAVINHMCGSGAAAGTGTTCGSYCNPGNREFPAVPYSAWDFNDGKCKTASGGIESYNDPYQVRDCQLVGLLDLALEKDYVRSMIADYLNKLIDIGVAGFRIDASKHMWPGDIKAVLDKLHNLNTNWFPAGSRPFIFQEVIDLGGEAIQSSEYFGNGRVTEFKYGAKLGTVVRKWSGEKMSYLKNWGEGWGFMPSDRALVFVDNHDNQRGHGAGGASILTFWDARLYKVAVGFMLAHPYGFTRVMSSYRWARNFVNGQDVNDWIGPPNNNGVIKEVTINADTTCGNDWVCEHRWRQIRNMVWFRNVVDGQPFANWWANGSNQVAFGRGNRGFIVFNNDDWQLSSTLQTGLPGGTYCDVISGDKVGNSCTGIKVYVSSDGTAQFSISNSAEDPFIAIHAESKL

α-glucosidase [6] = biological target: T2, α-glucosidase (Saccharomyces cerevisiae, UniProt P53341); assay: colorimetric α-glucosidase inhibitory assay; assay type: biochemical; conditions: mean ± SD
T2 sequence (P53341 whole entry): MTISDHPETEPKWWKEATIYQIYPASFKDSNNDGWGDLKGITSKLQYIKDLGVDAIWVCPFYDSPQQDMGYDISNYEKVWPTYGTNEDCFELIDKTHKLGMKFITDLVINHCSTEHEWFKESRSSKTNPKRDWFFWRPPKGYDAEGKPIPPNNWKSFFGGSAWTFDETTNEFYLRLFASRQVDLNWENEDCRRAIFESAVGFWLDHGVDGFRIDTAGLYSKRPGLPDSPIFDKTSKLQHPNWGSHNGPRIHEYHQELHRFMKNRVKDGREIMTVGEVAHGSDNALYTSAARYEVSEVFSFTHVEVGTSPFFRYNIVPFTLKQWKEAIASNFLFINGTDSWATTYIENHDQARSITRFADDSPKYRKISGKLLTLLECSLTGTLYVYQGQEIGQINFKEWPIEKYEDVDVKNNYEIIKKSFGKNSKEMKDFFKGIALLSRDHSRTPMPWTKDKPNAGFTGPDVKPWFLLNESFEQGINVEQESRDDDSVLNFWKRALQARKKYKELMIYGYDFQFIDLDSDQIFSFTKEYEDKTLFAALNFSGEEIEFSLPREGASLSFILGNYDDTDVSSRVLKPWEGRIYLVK

HepG2 cell lines = conditions: read-out: cytotoxicity against HepG2 cell lines IC50; cited from earlier work
[7] = cited from earlier work
α-glucosidase [8] = biological target: T2, α-glucosidase; conditions: read-out: α-glucosidase inhibitory activity IC50; cited from earlier work

Compound: COc1ccc(-c2coc3c4c(ccc3c2=O)OC(C)(C)C=C4)cc1OC [4′,5′-dimethoxy-6,6-dimethylpyranoisoflavone]
- IC50 (butyrylcholinesterase): 2.34 µM

Compound: C=C(C)[C@H]1Cc2c(ccc3c2O[C@@H]2COc4cc(OC)c(OC)cc4[C@]2(O)C3=O)O1 [(−)-Hydroxyrotenone]
- IC50 (HT-29): 0.1 µM

Compound: C=C(C)[C@H]1Cc2c(ccc3c2O[C@@H]2COc4cc(OC)c(OC)cc4[C@@H]2C3=O)O1 [(−)-rotenone]
- IC50 (HT-29): 0.3 µM

Compound: CC(C)=CCc1c(O)c(CC=C(C)C)c2occ(-c3ccc(O)cc3)c(=O)c2c1O [Compound 10, 6,8-diprenylgenistein]
- viability ([1]; RAW 264.7 and SW480 cells): 5.66 to 77%
- IC50 (SW480 cells): > 100 µM
- viability at 6.25 μg/mL [2]: 117.5 ± 0.31%
- viability at 12.5 μg/mL [2]: 118.8 ± 0.92%
- viability at 25 μg/mL [2]: 117 ± 3.08%
- viability at 50 μg/mL [2]: 94.7 ± 3.85%
- viability at 100 μg/mL [2]: 77 ± 3.95%
- IC50 (K562 cells): > 100 µM
- IC50 (RAW 264.7 cells): > 100 µM
- IC50 (A549 cells): > 100 µM

Compound: C=C(C)C(O)Cc1c(O)c(CC=C(C)C)c2occ(-c3ccc(O)cc3)c(=O)c2c1O (centres unmarked) [Compound 13, isoerysenegalensein E]
- viability ([1]; RAW 264.7 and SW480 cells): 5.66 to 77%
- IC50 (SW480 cells): > 100 µM
- viability at 6.25 μg/mL [2]: 94 ± 4.18%
- viability at 12.5 μg/mL [2]: 92.8 ± 1.57%
- viability at 25 μg/mL [2]: 90.4 ± 1.91%
- viability at 50 μg/mL [2]: 89.5 ± 3.29%
- viability at 100 μg/mL [2]: 59.5 ± 1.3%
- IC50 (K562 cells): > 100 µM
- IC50 (RAW 264.7 cells): 56.1 µM
- viability at 24 h, 6.25 μg/mL [3]: 103 ± 8.01%
- viability at 24 h, 12.5 μg/mL [3]: 100 ± 2.13%
- viability at 24 h, 25 μg/mL [3]: 61.9 ± 3.12%
- viability at 24 h, 50 μg/mL [3]: 47.3 ± 2.94%
- viability at 24 h, 100 μg/mL [3]: 29.4 ± 3.72%
- IC50 (A549 cells): > 100 µM

Compound: CC(C)=CCc1c2c(c3occ(-c4ccc(O)cc4)c(=O)c3c1O)CC(C(C)(C)O)O2 (centres unmarked) [Compound 16, senegalensin]
- viability ([1]; A549, SW480, K562 and RAW 264.7 cells): 4.53 to 48.2%
- IC50 (SW480 cells): 69.8 µM
- viability at 6.25 μg/mL [2]: 166 ± 6.12%
- viability at 12.5 μg/mL [2]: 142 ± 1.71%
- viability at 25 μg/mL [2]: 122 ± 6.64%
- viability at 50 μg/mL [2]: 6.6 ± 0.14%
- viability at 100 μg/mL [2]: 6.09 ± 0.11%
- IC50 (K562 cells): 21.5 µM
- viability at 6.25 μg/mL [4]: 76.6 ± 3.38%
- viability at 12.5 μg/mL [4]: 28.8 ± 0.39%
- viability at 25 μg/mL [4]: 11.54 ± 0.06%
- viability at 50 μg/mL [4]: 10.2 ± 0.15%
- viability at 100 μg/mL [4]: 9.7 ± 0.15%
- IC50 (RAW 264.7 cells): 51.5 µM
- viability at 24 h, 6.25 μg/mL [3]: 154 ± 1.59%
- viability at 24 h, 12.5 μg/mL [3]: 139 ± 6.94%
- viability at 24 h, 25 μg/mL [3]: 58.7 ± 2.23%
- viability at 24 h, 50 μg/mL [3]: 6 ± 0.65%
- viability at 24 h, 100 μg/mL [3]: 5.3 ± 0.01%
- IC50 (A549 cells): 70.9 µM
- viability at 6.25 μg/mL [5]: 126 ± 1.36%
- viability at 12.5 μg/mL [5]: 116 ± 2.68%
- viability at 25 μg/mL [5]: 97 ± 9.76%
- viability at 50 μg/mL [5]: 6.25 ± 0.33%
- viability at 100 μg/mL [5]: 4.53 ± 0.07%

Compound: C[C@H]1O[C@H](O[C@H]2[C@H](O)[C@@H](O)[C@@H](O[C@H]3[C@H](O)[C@@H](O)C(O)O[C@@H]3CO)O[C@@H]2CO)[C@H](O)[C@@H](O)[C@@H]1N[C@H]1C=C(CO)[C@@H](O)[C@H](O)[C@H]1O (some centres unmarked) [acarbose]
- α-amylase inhibition, inhibition rate (%) (α-amylase): 58.5 ± 1.9%
- α-glucosidase inhibition, inhibition rate (%) (α-glucosidase [6]): 57.2 ± 0.8%

Compound: COc1cc(OC)c(-c2coc3c4c(ccc3c2=O)OC(C)(C)C=C4)cc1OC [barbigerone]
- IC50 (HepG2 cell lines): 0.61 µM

Compound: COc1cc2c(cc1OC)[C@@H]1C(=O)c3ccc4c(c3O[C@@H]1CO2)C=CC(C)(C)O4 [deguelin]
- IC50 (butyrylcholinesterase): 14.2 µM

Compound: COc1cccc2c1C(=O)c1c(O)c3c(c(O)c1C2=O)C[C@@](O)(C(=O)CO)C[C@@H]3O[C@H]1C[C@H](N)[C@H](O)[C@H](C)O1 [doxorubicin, reference compound]
- IC50 (SW480 cells): 53.4 µM
- viability at 6.25 μg/mL [2]: 80 ± 2.48%
- viability at 12.5 μg/mL [2]: 73.9 ± 1.19%
- viability at 25 μg/mL [2]: 60.2 ± 1.51%
- viability at 50 μg/mL [2]: 17.8 ± 1.49%
- viability at 100 μg/mL [2]: 16.8 ± 1.29%
- IC50 (K562 cells): 86.8 µM
- viability at 12.5 μg/mL [4]: 70.3 ± 0.89%
- viability at 25 μg/mL [4]: 59.5 ± 1.8%
- viability at 50 μg/mL [4]: 49.6 ± 2.2%
- viability at 100 μg/mL [4]: 32.4 ± 0.89%
- IC50 (RAW 264.7 cells): < 11.5 µM
- viability at 24 h, 6.25 μg/mL [3]: 4.62 ± 0.17%
- viability at 24 h, 12.5 μg/mL [3]: 5.35 ± 0.27%
- viability at 24 h, 25 μg/mL [3]: 4.59 ± 0.01%
- viability at 24 h, 50 μg/mL [3]: 4.44 ± 0.08%
- viability at 24 h, 100 μg/mL [3]: 5.96 ± 0.42%
- IC50 (A549 cells): 134 µM
- viability at 6.25 μg/mL [5]: 79.6 ± 1.89%
- viability at 12.5 μg/mL [5]: 74 ± 0.75%
- viability at 25 μg/mL [5]: 57.7 ± 1.71%
- viability at 50 μg/mL [5]: 52.8 ± 1.51%
- viability at 100 μg/mL [5]: 10.1 ± 3.11%

Compound: COc1cc2c(cc1OC)[C@]1(O)C(=O)c3ccc4c(c3O[C@@H]1CO2)C=CC(C)(C)O4 [tephrosin]
- cell toxicity ([7]; at a concentration of 3.125 μM): without cell toxicity
- IC50 ([7]; read-out: anti-inflammatory activity IC50): < 10 µM

Compound: berectones A
- IC50 (α-glucosidase [8]): 144 µM
